Patent publication US20030229113A1, “Keratinocyte growth inhibitors and hydroxamic acid derivatives” (priority 2003, published 2003)

test system: solubilizing enzyme of HB-EGF; assay: Inhibition of TPA-stimulated release of HB-EGF from HT-1080 transfectant expressing HB-EGF/alkaline phosphatase fusion protein; format: cell-based, human; details: HT-1080 HB-EGF-AP transfectant, TPA 60 nM for 60 min, AP activity in conditioned medium (OD405)
Experimental: Human fibrosarcoma HT-1080 stable transfectant expressing fusion protein of HB-EGF and human placental alkaline phosphatase (AP) were used for following experiments.
The cultured transfectant was treated with Trypsin-EDTA solution, and suspended in Minimum Essential Medium (without phenol red; supplemented with 10% heat-inactivated fetal calf serum; MEM) at the concentration of 1×10^5 cells/ml. Each 0.2 ml of the cell suspension was dispensed into individual wells of 96 well microplate, and incubated overnight in the CO2 incubator (37° C.). After the incubation, the conditioned medium was removed, and the wells were washed once with 0.2 ml of phosphate buffered saline. The cells were treated with 0.1 ml of compound solution [compound solutions in dimethylsulfoxide (DMSO) were diluted 100 times with MEM] for 30 min at 37° C. Then the compound solutions were removed, and cells were treated with 0.2 ml of TPA solution (120 μM) of stock solution was diluted to 60 nM with MEM) containing same concentration of the compound for 60 min at 37° C. The cells treated same procedure without compound were used as control.
After these treatments, each 0.1 ml of conditioned medium was transferred to individual wells of new 96 well microplate and incubated at 65° C. for 10 min to inactivate endogenous alkaline phosphatase. One hundred microliter of substrate solution (1 mg/ml of p-nitrophenyl phosphate in 0.01% magnesium chloride/1 M diethanolamine) for AP was added to each well and incubated for 120 min at room temperature in the dark. The OD405 of each well was measured with microplate reader. The IC50 values of the compounds were calculated from the concentration-inhibition curves.

SMILES | IC50 [nM]
O=C(NO)C1Cc2nccnc2CN1S(=O)(=O)c1ccc(OCCCc2ccccc2)cc1 (single isomer, unassigned; (+)) [the compound(45), (+)-N-Hydroxy-6-[4-(3-phenylpropoxy)benzenesulfonyl]-5,6,7,8-tetrahydropyrido[3,4-b]pyrazine-7-carboxamide] | 630
O=C(NO)C1Cc2nccnc2CN1S(=O)(=O)c1ccc(Oc2cnccn2)cc1 (racemic) [the compound(5), (±)-N-Hydroxy-6-[4-(pyrazine-2-yloxy)benzenesulfonyl]-5,6,7,8-tetrahydropyrido[3,4-b]pyrazine-7-carboxamide] | 900
O=C(NO)C1Cc2nccnc2CN1S(=O)(=O)c1ccc(Oc2ccncc2)cc1 (racemic) [the compound(2), (±)-N-Hydroxy-6-[4-(pyridine-4-yloxy)benzenesulfonyl]-5,6,7,8-tetrahydropyrido[3,4-b]pyrazine-7-carboxamide] | 990

same assay, conditions: HT-1080 HB-EGF-AP transfectant, TPA 60 nM for 60 min, AP activity in conditioned medium (OD405); read-out: IC50

IC50 [nM] | SMILES
1900 | O=C(NO)C1Cc2nccnc2CN1S(=O)(=O)/C=C/c1ccccc1 (single isomer, unassigned; (+)) [the compound(47), (+)-N-Hydroxy-6-(2-trans-phenylethenesulfonyl)-5,6,7,8-tetrahydropyrido[3,4-b]pyrazine-7-carboxamide]
240 | COCCCOc1ccc(S(=O)(=O)N2Cc3nccnc3CC2C(=O)NO)cc1 (racemic) [the compound(4), (±)-N-Hydroxy-6-[4-(3-methoxypropoxy)benzenesulfonyl]-5,6,7,8-tetrahydropyrido[3,4-b]pyrazine-7-carboxamide]
1500 | O=C(NO)C1Cc2nccnc2CN1S(=O)(=O)c1ccc(OCCO)cc1 (single isomer, unassigned; (+)) [the compound(34), (+)-N-Hydroxy-6-[4-(2-hydroxyethoxy)benzenesulfonyl]-5,6,7,8-tetrahydropyrido[3,4-b]pyrazine-7-carboxamide]
1900 | CCCc1ccc(S(=O)(=O)N2Cc3nccnc3CC2C(=O)NO)cc1 (single isomer, unassigned; (+)) [the compound(43), (+)-N-Hydroxy-6-(4-propylbenzenesulfonyl)-5,6,7,8-tetrahydropyrido[3,4-b]pyrazine-7-carboxamide]
430 | CNC(=O)C(NC(=O)C(CC(C)C)C(C)C(=O)NO)c1ccccc1 [the compound a, [4-(N-hydroxyamino)-2 (R)-isobutyl-3-methylsuccinyl]-L-phenylglycine-N-methylamide, reference compound]
300 | O=C(NO)C1Cc2nccnc2CN1S(=O)(=O)c1ccc(O)cc1 (single isomer, unassigned; (+)) [the compound(41), (+)-N-Hydroxy-6-(4-hydroxybenzenesulfonyl)-5,6,7,8-tetrahydropyrido[3,4-b]pyrazine-7-carboxamide]
160 | O=C(NO)C1Cc2nccnc2CN1S(=O)(=O)c1ccc(OCCF)cc1 (single isomer, unassigned; (+)) [the compound(18), (+)-N-Hydroxy-6-[4-(2-fluoroethoxy)benzenesulfonyl]-5,6,7,8-tetrahydropyrido[3,4-b]pyrazine-7-carboxamide]
3600 | CC(C)COc1ccc(S(=O)(=O)N2Cc3nccnc3CC2C(=O)NO)cc1 (single isomer, unassigned; (+)) [the compound(22), (+)-N-Hydroxy-6-(4-isobuthoxybenzenesulfonyl)-5,6,7,8-tetrahydropyrido[3,4-b]pyrazine-7-carboxamide]
100 | CNC(=O)C(Cc1ccccc1)NC(=O)C(C(C)C)C(C)C(=O)NO [the compound e, 4-(N-hydroxyamino)-2 (R)-isopropyl-3-methylsuccinyl-L-phenylalanine-N-methylamide, reference compound]
600 | O=C(NO)C1Cc2nccnc2CN1S(=O)(=O)c1ccc(OCCCBr)cc1 (single isomer, unassigned; (+)) [the compound(24), (+)-N-Hydroxy-6-[4-(3-bromopropoxy)benzenesulfonyl]-5,6,7,8-tetrahydropyrido[3,4-b]pyrazine-7-carboxamide]
1100 | Nc1ccc(Oc2ccc(S(=O)(=O)N3Cc4nccnc4CC3C(=O)NO)cc2)cc1 (racemic) [the compound(6), (±)-N-Hydroxy-6-[4-(4-aminophenoxy)benzenesulfonyl]-5,6,7,8-tetrahydropyrido[3,4-b]pyrazine-7-carboxamide]
120 | CNC(=O)C(Cc1cccc2c1CCCC2)NC(=O)C(CC(C)C)C(C)C(=O)NO [the compound b, [4-(N-hydroxyamino)-2 (R)-isobutyl-3-methylsuccinyl]-L-3-(5,6,7,8-tetrahydro-1-naphtyl)alanine-N-methylamide, reference compound]
100 | CNC(=O)C(Cc1ccccc1)NC(=O)C(CC(C)C)C(C)C(=O)NO [the compound f, 4-(N-hydroxyamino)-2 (R)-isobutyl-3-methylsuccinyl-L-phenylalanine-N-methylamide, reference compound]
1500 | CSc1ccc(S(=O)(=O)N2Cc3nccnc3CC2C(=O)NO)cc1 (single isomer, unassigned; (+)) [the compound(35), (+)-N-Hydroxy-6-(4-methylthiobenzenesulfonyl)-5,6,7,8-tetrahydropyrido[3,4-b]pyrazine-7-carboxamide]
800 | COc1ccc(S(=O)(=O)N2Cc3nccnc3CC2C(=O)NO)cc1 (racemic) [the compound(1), (±)-N-Hydroxy-6-(4-methoxybenzenesulfonyl)-5,6,7,8-tetrahydropyrido[3,4-b]pyrazine-7-carboxamide]
160 | CCOCCCOc1ccc(S(=O)(=O)N2Cc3nccnc3CC2C(=O)NO)cc1 (racemic) [the compound(12), (±)-N-Hydroxy-6-[4-(ethoxypropoxy)benzenesulfonyl]-5,6,7,8-tetrahydropyrido[3,4-b]pyrazine-7-carboxamide]
260 | CCOCCOc1ccc(S(=O)(=O)N2Cc3nccnc3CC2C(=O)NO)cc1 (racemic) [the compound(7), (±)-N-Hydroxy-6-[4-(2-ethoxyethoxy)benzenesulfonyl]-5,6,7,8-tetrahydropyrido[3,4-b]pyrazine-7-carboxamide]
2200 | CC(=O)c1ccc(S(=O)(=O)N2Cc3nccnc3CC2C(=O)NO)cc1 (single isomer, unassigned; (+)) [the compound(42), (+)-N-Hydroxy-6-(4-acetylbenzenesulfonyl)-5,6,7,8-tetrahydropyrido[3,4-b]pyrazine-7-carboxamide]
260 | CCCCOCCCOc1ccc(S(=O)(=O)N2Cc3nccnc3CC2C(=O)NO)cc1 (single isomer, unassigned; (+)) [the compound(25), (+)-N-Hydroxy-6-[4-(3-buthoxypropoxy)benzenesulfonyl]-5,6,7,8-tetrahydropyrido[3,4-b]pyrazine-7-carboxamide]

SMILES | IC50 [nM]
CC(=O)OCCOc1ccc(S(=O)(=O)N2Cc3nccnc3CC2C(=O)NO)cc1 (single isomer, unassigned; (+)) [the compound(33), (+)-N-Hydroxy-6-[4-(2-acetoxyethoxy)benzenesulfonyl]-5,6,7,8-tetrahydropyrido[3,4-b]pyrazine-7-carboxamide] | 400
